The values below come from article PMC8404221 (European journal of pharmaceutical sciences : official …, 2021).

Several values for one entry are separate records, joined by “and”; a condition that tells them apart may be missing. Identical values can stand only once. Like-named read-outs stand apart in the source and are kept apart here. Marks after values point to notes of the source that are not given here.

In data set [1] the target is T1, Monoamine oxidase-A (MAO-A) (Homo sapiens, UniProt P21397).
T1 sequence (P21397 1-527): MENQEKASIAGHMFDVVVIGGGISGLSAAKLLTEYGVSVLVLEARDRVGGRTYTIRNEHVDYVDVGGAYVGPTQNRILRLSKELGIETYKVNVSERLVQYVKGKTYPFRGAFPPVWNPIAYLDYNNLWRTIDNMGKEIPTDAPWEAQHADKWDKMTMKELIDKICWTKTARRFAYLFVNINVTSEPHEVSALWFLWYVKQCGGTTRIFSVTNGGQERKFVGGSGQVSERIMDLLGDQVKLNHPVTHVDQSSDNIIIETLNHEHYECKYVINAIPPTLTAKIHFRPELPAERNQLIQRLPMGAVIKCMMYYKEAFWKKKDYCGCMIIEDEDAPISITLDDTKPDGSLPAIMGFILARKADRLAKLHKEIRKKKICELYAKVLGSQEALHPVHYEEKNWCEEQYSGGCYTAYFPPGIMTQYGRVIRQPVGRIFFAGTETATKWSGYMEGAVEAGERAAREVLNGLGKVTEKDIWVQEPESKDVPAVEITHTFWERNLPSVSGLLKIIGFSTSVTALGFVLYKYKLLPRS
The experiment in a line: biochemical. It is filed as biochemical.

The target in data set [2] is T2, DYRK1A (Homo sapiens, UniProt Q13627). The experiment in a line: biochemical. It is filed as binding. Particulars: for IC50: 10-point 2-fold dose response; for inhibition at 6.7 µM: read-out: DYRK1A inhibition in pilot HTS.
For data set [3], the target named is T2, DYRK1A. In words: biochemical. Format: biochemical.
Data set [4] relates to H4 cells. The experiment in a line: PrestoBlue cell proliferation/viability assay. It is filed as cell-based, human. Particulars: 72 h; for IC50: Homo sapiens, read-out: H4 (cell proliferation) IC50.
In data set [5] the test system is U87 cells. The experiment in a line: PrestoBlue cell proliferation/viability assay. It is filed as cell-based, human. Particulars: 72 h; for U87 (cell proliferation) % inhibition at highest dose tested: PrestoBlue.
Data set [6] relates to H4 cells. The experiment in a line: High content imaging assay. Format: cell-based, human. Particulars: 72 h, read-out: H4 (nuclear count) IC50.
The subject of data set [7] is U87 cells. In words: High content imaging assay. It is filed as cell-based, human. The note with it: 72 h; for inhibition at 66 µM: read-out: U87 (nuclear count) % inhibition at highest dose tested; for U87 (nuclear count) % inhibition at highest dose tested: Hoechst 33342 high content imaging, highest dose tested (66 μM).
The target of data set [8] is T2, DYRK1A. The note with it: read-out: DYRK1A IC50, published values, ref Adayev et al., 2011, Bain et al., 2007, Bálint et al., 2017, Bruel et al., 2014, Foucourt et al., Göckler et al., 2009, Grabher et al., 2012, Kim et al., 2016, Kumar et al., 2018, Liu et al., 2017b, PubChem; cited from earlier work.
The next data set relates to MAO-A. The note with it: read-out: MAO-A IC50, published, ref Bálint et al., 2017, Clarke and Ramsay, 2011, Herraiz and Brandt, 2014, Herraiz and Chaparro, 2005, Ionescu et al., 2012, Kim et al., 1997, Rahman and Rahmatullah, 2010, Reniers et al., Rommelspacher et al., 1994, Rüben et al., 2015, Santillo et al., Wurzlbauer et al., 2020; cited from earlier work.
For data set [9], the target named is T3, CLK1 (Homo sapiens, UniProt P49759). In words: InCELL Hunter / PathHunter in-cell target engagement assay. Format: cell-based.
Data set [10] relates to U87 human glioblastoma cells. In words: U87 glioma tumor xenograft in nude NU/J mice. Format: in vivo.
The target of another data set is CK1α1 (Homo sapiens, UniProt P48729). In words: Kinase selectivity panel. The note with it: 10 μM, n = 2.
A further data set deals with PIM1 (Homo sapiens, UniProt P11309). The experiment in a line: Kinase selectivity panel. Particulars: 10 μM, n = 2.
In data set [11] the target is T3, CLK1. In words: Kinase selectivity panel. Format: biochemical. The note with it: 10 μM, n = 2.
Another data set addresses DYRK1B (Homo sapiens, UniProt Q9Y463). The experiment in a line: Kinase selectivity panel. It is filed as biochemical. Particulars: 10 μM, n = 2.
For data set [12], the target named is T2, DYRK1A. The experiment in a line: Kinase selectivity panel. It is filed as biochemical. Particulars: 10 μM, n = 2.
For another data set, the target named is T4, DYRK2 (Homo sapiens, UniProt Q92630).
T4 sequence (Q92630 1-601): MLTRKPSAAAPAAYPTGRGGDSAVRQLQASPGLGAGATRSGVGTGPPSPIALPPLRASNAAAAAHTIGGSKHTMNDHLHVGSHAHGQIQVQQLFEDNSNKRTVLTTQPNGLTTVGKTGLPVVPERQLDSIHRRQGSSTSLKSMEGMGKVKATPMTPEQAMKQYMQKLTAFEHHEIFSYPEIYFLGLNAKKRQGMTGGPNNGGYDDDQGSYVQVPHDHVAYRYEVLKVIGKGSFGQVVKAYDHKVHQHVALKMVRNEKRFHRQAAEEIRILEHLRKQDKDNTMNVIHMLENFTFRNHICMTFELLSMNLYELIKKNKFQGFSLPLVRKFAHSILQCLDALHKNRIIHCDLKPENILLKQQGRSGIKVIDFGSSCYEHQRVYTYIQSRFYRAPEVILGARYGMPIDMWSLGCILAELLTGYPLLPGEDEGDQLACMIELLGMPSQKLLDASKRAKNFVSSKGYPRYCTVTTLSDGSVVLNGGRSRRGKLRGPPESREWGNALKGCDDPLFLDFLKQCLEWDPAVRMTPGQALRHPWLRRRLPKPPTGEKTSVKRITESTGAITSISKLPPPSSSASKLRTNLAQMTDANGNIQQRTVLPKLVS
The experiment in a line: Kinase selectivity panel. Particulars: 10 μM, n = 2.

Setting [13] is: using TR-FRET DYRK1A IC50 values.

T3 sequence (P49759 whole entry): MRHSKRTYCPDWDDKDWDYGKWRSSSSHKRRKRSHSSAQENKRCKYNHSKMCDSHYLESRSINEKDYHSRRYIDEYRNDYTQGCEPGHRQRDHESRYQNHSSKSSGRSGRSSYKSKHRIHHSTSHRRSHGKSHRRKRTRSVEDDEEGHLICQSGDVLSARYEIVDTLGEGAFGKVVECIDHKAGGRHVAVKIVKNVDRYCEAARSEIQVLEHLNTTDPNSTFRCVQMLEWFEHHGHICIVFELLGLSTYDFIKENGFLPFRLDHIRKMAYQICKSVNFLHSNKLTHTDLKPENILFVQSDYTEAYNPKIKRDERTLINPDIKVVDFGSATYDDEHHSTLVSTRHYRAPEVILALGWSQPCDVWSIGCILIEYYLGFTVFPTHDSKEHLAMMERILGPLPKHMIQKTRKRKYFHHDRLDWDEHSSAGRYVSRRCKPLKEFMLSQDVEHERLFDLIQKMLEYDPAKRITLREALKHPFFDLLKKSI
CK1α1, sequence (P48729 whole entry): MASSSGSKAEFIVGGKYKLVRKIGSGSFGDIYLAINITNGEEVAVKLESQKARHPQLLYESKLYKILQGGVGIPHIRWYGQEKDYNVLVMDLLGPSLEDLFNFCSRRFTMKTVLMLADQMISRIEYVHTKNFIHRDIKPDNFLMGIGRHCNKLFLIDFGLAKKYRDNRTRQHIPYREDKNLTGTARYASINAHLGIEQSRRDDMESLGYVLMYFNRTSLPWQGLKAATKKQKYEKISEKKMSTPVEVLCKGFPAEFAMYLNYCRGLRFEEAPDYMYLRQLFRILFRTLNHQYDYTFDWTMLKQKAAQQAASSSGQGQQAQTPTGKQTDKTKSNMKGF
DYRK1B, sequence (Q9Y463 whole entry): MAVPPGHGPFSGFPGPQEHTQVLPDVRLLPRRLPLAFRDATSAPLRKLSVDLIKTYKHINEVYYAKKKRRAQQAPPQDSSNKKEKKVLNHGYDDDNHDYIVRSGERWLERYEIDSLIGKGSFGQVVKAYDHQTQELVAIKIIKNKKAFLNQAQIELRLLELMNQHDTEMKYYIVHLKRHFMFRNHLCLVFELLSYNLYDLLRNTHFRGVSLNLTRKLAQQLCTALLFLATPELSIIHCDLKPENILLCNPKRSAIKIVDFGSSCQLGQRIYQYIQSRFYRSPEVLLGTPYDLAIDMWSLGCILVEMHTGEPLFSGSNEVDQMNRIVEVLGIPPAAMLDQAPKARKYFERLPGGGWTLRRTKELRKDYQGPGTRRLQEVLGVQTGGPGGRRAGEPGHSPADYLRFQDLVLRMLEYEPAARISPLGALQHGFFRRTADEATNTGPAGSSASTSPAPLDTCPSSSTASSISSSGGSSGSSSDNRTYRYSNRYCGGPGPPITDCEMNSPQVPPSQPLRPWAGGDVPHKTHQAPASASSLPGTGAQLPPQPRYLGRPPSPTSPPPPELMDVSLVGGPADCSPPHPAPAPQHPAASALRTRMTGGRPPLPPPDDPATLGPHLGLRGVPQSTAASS
PIM1, sequence (P11309 whole entry): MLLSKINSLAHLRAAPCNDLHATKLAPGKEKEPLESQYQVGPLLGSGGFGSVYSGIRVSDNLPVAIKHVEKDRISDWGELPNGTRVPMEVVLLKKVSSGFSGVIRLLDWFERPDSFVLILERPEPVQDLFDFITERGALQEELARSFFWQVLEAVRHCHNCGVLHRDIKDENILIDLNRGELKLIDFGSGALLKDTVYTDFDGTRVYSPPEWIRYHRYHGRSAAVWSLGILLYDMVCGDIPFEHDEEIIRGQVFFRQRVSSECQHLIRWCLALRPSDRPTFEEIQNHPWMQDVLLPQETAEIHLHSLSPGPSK

Take `CN[C@@H]1C[C@H]2O[C@@](C)([C@@H]1OC)n1c3ccccc3c3c4c(c5c6ccccc6n2c5c31)C(=O)NC4` [Staurosporine, reference compound]: the “MAO-A IC50, MAO-A Glo” value in data set [1] was “No inhibition”.

As usually defined, the inhibition is the relative decrease from the control value, in per cent. On to `COc1ccc2c3c([nH]c2c1)C(C)=NCC3` [Harmaline, harmaline], for which the IC50 against DYRK1A [2] (DYRK1A IC50, TR-FRET) is 2.35 µM; against DYRK1A [3] it was 0.79 µM; in data set [1] (MAO-A IC50, MAO-A Glo) it was 0.09 µM; in [1] (MAO-A IC50, MAO-Glo), 0.06 to 0.09 µM; in the data set with H4 cells [4], 19.6 µM; in the data set on H4 cells [6] (Homo sapiens) it was 14.9 µM. Moreover, the IC50 on DYRK1A [8] was 1.24 to 4.59 µM; with MAO-A it was 0.005 to 0.02 µM. The inhibition at 6.7 µM on DYRK1A [2] stood at 81%. The “Fold more potent on MAO-A over DYRK1A” value in data set [1] (DYRK1A TR-FRET vs MAO-A) is ~ 25 fold and ~ 30 fold. For the same molecule, the “DYRK1A:MAO-A (IC50 ratio)” value in data set [1] (setting [13]) worked out at 26.1. Moreover, the “U87 (cell proliferation) % inhibition at highest dose tested” value (“U87 (cell proliferation) % inhibition” below) in the data set on U87 cells [5] was determined as 14% ^c. The inhibition at 66 µM with U87 cells [7] (Homo sapiens, U-87 MG) was approximately 66%.

On to `c1ccc2c(c1)[nH]c1cnccc12` [Norharmane, norharmane], for which the IC50 on DYRK1A [2] (DYRK1A IC50, TR-FRET) was 5.46 µM; against DYRK1A [3], 3.19 µM; with H4 cells [4], more than 25 µM; with H4 cells [6] (Homo sapiens) it was 29.1 µM; on DYRK1A [8] it was 8.75 µM; in the data set with MAO-A, […]. Besides, the “U87 (cell proliferation) % inhibition” value in the data set on U87 cells [5] is reported as “No inhibition ^c”. Also, in the data set on U87 cells [7], the “U87 (nuclear count) % inhibition at highest dose tested” value is “No inhibition ^c”.

For `COc1ccc2c(c1)[nH]c1c(C)nccc12` [Harmine, harmine, reference compound], the inhibition at 6.7 µM on DYRK1A [2] stood at 74%. Further, the IC50 in the data set with H4 cells [4] was 4.9 µM; in the data set with U87 cells [5] (Homo sapiens, U-87 MG, read-out: U87 (cell proliferation) IC50) it was more than 25 µM; in the data set with H4 cells [6] (Homo sapiens), 14.9 µM; in the data set with U87 cells [7] (Homo sapiens, U-87 MG, read-out: U87 (nuclear count) IC50), 17.6 µM; in the data set with MAO-A it was 0.003 to 0.107 µM. On CLK1 [9] (0.5, 5 and 50 μM), the “Effect on β-gal activity (CLK1 target engagement)” value was “increase in β-gal activity”. Moreover, the Tumor inhibition rate in data set [10] (15 mg/kg i.p. q.d.) is 16.5%. Also, in data set [10] (15 mg/kg i.p. q.d., up to 21 days), the “Effect on body weight” value was “did not lead to significant differences in body weight”. Besides, in data set [10] (anecdotal observation, duration of the study), the “Tremor activity in treated mice” value was “no tremor activity”. Besides, the “Reduction in enzyme activity, CK1α1” value at CK1α1 is not below 70%. In addition, the “Reduction in enzyme activity, PIM1” value at PIM1 was not below 70%.

By EC50 is commonly meant the concentration at which the effect is half-maximal. `COC(=O)[C@@]1(O)C[C@H]2O[C@]1(C)n1c3ccccc3c3c4c(c5c6ccccc6n2c5c31)C(=O)NC4` [K252a]: the EC50 at CLK1 [9] (read-out: CLK1 cellular target engagement EC50, positive control inhibitor) was found to be 0.0087 µM.

As to `Cc1nccc2c1[nH]c1ccccc12` [Harmane, harmane], the IC50 against DYRK1A [2] (DYRK1A IC50, TR-FRET) is 2.68 µM; against DYRK1A [3], 1 µM; in data set [1] (MAO-A IC50, MAO-A Glo) it was 0.64 µM; in the data set with H4 cells [4], more than 25 µM; with H4 cells [6] (Homo sapiens) it was 17.1 µM; at DYRK1A [8], 1.82 µM. Moreover, in the data set with MAO-A, the IC50 was 0.029 to 0.337 µM. For the same molecule, the inhibition at 6.7 µM at DYRK1A [2] was determined as 71%. The “DYRK1A:MAO-A (IC50 ratio)” value in data set [1] (setting [13]) came out at 4.2. Further, in the data set with U87 cells [5], the “U87 (cell proliferation) % inhibition” value worked out at 30% ^c. For the same molecule, the inhibition at 66 µM in the data set on U87 cells [7] (Homo sapiens, U-87 MG) was approximately 50%.

For the molecule `CC1=NCCc2c1[nH]c1cc(O)ccc21` [Harmalol, harmalol], the “Fold lower activity against DYRK1A than harmol” value at DYRK1A [2] is listed as ~ 6 fold. Further, the IC50 against DYRK1A [2] (DYRK1A IC50, TR-FRET) was 0.63 µM; at DYRK1A [3], 0.18 µM; in [1] (MAO-A IC50, MAO-A Glo), 0.66 µM; in the data set on H4 cells [4], 23.7 µM; in the data set with H4 cells [6] (Homo sapiens), 25.2 µM; in the data set on MAO-A, 0.153 µM. For the same molecule, the inhibition at 6.7 µM on DYRK1A [2] turned out to be 79%. Further, the “DYRK1A:MAO-A (IC50 ratio)” value in data set [1] turned out to be 1.0. Also, the “Reduction in enzyme activity, CLK1” value at CLK1 [11] was approximately 100%. The “Reduction in enzyme activity, DYRK1B” value at DYRK1B is recorded as approximately 100%. For the same molecule, at DYRK1A [12], the “Reduction in enzyme activity, DYRK1A (panel)” value is approximately 100%. Besides, in the data set on U87 cells [5], the “U87 (cell proliferation) % inhibition” value is reported as 37% ^c. The inhibition at 66 µM in the data set with U87 cells [7] (Homo sapiens, U-87 MG) is less than 50%.

Turning to `COc1ccc2c3c([nH]c2c1)[C@@H](C)NCC3` [Tetrahydroharmine, tetrahydroharmine], the IC50 at DYRK1A [2] (read-out: DYRK1A IC50, TR-FRET) is 9.41 µM; at DYRK1A [2] (read-out: DYRK1A IC50, TR-FRET, listed as tetrahydroharmine) it was 9.4 µM; at DYRK1A [3] (read-out: DYRK1A IC50, 33P-ATP, casein substrate, ATP 10 μM, data generated by Reaction Biology) it was 6.42 µM; in data set [1] (read-out: MAO-A IC50, MAO-A Glo) it was 1.52 µM; in the data set on H4 cells [6] (Hoechst 33342 high content imaging), 26.9 µM; at DYRK1A [8] it was 2.99 µM. In addition, the “DYRK1A:MAO-A (IC50 ratio)” value in data set [1] (setting [13]) was 6.2. Further, the “H4 (cell proliferation) % inhibition at highest dose tested” value with H4 cells [4] (PrestoBlue, highest dose tested) was found to be 38%^c. The “U87 (cell proliferation) % inhibition” value in the data set with U87 cells [5] is given as “No inhibition ^c”. Also, the “U87 (nuclear count) % inhibition at highest dose tested” value with U87 cells [7] was approximately 50% ^c. The “Reduction in enzyme activity, DYRK2” value at DYRK2 is listed as “minimal effect”.
